Reference: patent US20100029761A1, “NOVEL COMPOUNDS, PHARMACEUTICAL COMPOSITIONS CONTAINING SAME, AND METHODS OF USE FOR SAME” (priority 2005, published 2010)
Converted amounts (≈) assume the structure as drawn. Where two headings read alike, the source gives them in different places.

Legend:
[1] = tested on: MCF-7 human breast cancer cells; assay: XTT cytotoxicity assay (M); assay type: cell-based; settings: MCF7, MCF-7, 72 hours
Experimental: The XTT assay is a non-radioactive alternative for the [^51Cr] release cytotoxicity assay. XTT is a tetrazolium salt that is reduced to a formazan dye only by metabolically active, viable cells. The reduction of XTT is measured spectrophotometrically as OD490-OD650. To measure the cytotoxicity of specific compounds against cancer cells, 9×10^3 MCF-7 human breast cancer cells, obtained from the American Type Culture Collection are plated per well in 96 well plates in DMEM medium with 10% fetal bovine serum, insulin, penicillin, and streptomycin. Following overnight culture at 37° C. and 5% CO2, the compounds to be tested, dissolved in DMSO, are added to the wells in 1 μl volume at the following concentrations: 80, 40, 20, 10, 5, 2.5, 1.25, and 0.625 μg/ml in triplicate. Additional concentrations are tested if required. 1 μl of DMSO is added to triplicate wells are the vehicle control. C75 is run at 40, 20, […], and 5 μg/ml in triplicate as positive controls. After 72 hours of incubation, cells are incubated for 4 hours with the XTT reagent as per manufacturer's instructions (Cell Proliferation Kit II (XTT) Roche). Plates are read at OD490 and OD650 on a Molecular Devices SpectraMax Plus Spectrophotometer. Three wells containing the XTT reagent without cells serve as the plate blank. XTT data are reported as OD490-OD650. Averages and standard error of the mean are computed using SOFTmax Pro software (Molecular Dynamics). The IC50 for the compounds is defined as the concentration of drug leading to a 50% reduction in OD490-OD650 compared to controls. The OD490-OD650 are computed by the SOFTmax PRO software (Molecular Devices) for each compound concentration. IC50 is calculated by linear regression, plotting the FAS activity as percent of control versus drug concentrations. Linear regression, best-fit line, r^2, and 95% confidence intervals are determined using Prism Version 3.0 (Graph Pad Software).

[2] = tested on: β-Oxidation of (1-14C) palmitic acid in cells; assay: β-Oxidation assay, isolation of acid soluble products; assay type: cell-based; set-up: unit not given here
Experimental: A 24 well plate with 1 ml per well was prepared with 2.5×10^5 cells /well. The cells were incubated O/N. The next day, a solubilized palmitate solution was prepared. 50 μls of (1−^14C) Palmitic acid was added to a 2 ml centrifuge tube and dried under nitrogen gas. 2 mls of α-CD (α-Cyclodextran)—10 mg/ml in 10 mM Tris were added. This solution was incubated in a 37° C. water bath for 30 minutes. A hot mix was prepared by adding 25 μl of this solution to 2.5 μls of 200 μM Carnitine and 222.5 μl of serum free medium that is used for cells. The cells were then treated with the test compound in triplicate, and incubated. at 37° C. for 60 minutes. The medium was removed and 250 μl of the hot mix were added. The test compound was added again, and further incubated at 37° C. for 60 minutes. The reaction was stopped with 50 μl of 2.6 N HClO4. The contents of the plate were transferred to a 1.5 ml centrifuge tube, and 50 μl of 4N KOH were then added, and the tube incubated in a 60° C. water bath for 30 min. Sodium acetate (1 M, 75 μl) and sulfuric acid (3N, 50 μl) were added to the solution and vortexed. The tube was spun for 7 minutes at 1000 rpm at room temperature. A portion (225 μl) was removed, and the following were added (vortex after each addition, twice at the end): 938 μl of 1:1 Chloroform: Methanol; 468 μl of Chloroform; 281 μl distilled Water. The tubes were spun at 1000 rpm for 5 minutes. The upper phase was removed into a large glass scintillation vial and 5 ml of Budget solvent (scintillation liquid) was added. The tubes were well vortexed. Finally, ^14C was counted for one minute.

Weight loss screen = assay type: in vivo, Balb/C mice; settings: 60 mg/kg intraperitoneally
Experimental: Balb/C mice (Jackson Labs) are utilized for the initial weight loss screening. Animals are housed in temperature and 12 hour day/night cycle rooms and fed mouse chow and water ad lib. Three mice are utilized for each compound tested with vehicle controls in triplicate per experiment. For the experiments, mice are housed separately for each compound tested three mice to a cage. Compounds are diluted in DMSO at 10 mg/ml and mice are injected intraperitoneally with 60 mg/kg in approximately 100 μl of DMSO or with vehicle alone. Mice are observed and weighed daily; average weights and standard errors are computed with Excel (Microsoft). The experiment continues until treated animals reach their pretreatment weights. Select compounds are tested in animals housed in metabolic cages. Dosing of animals are identical to the screening experiments with three animals to a single metabolic cage. Animal weights, water and food consumption, and urine and feces production are measured daily.

[3] = tested on: Enterococcus faecalis (ATCC # 29212); assay: Broth microdilution MIC, E. faecalis; assay type: cell-based; settings: for MIC: Enterococcus faecalis, ATCC29212
Experimental: (§1) A broth microdilution assay is used to assess the antimicrobial activity of the compounds. […] Microorganisms tested include Staphylococcus aureus (ATCC # 29213), Enterococcus faecalis (ATCC # 29212), Pseudomonas aeruginosa (ATCC # 27853), and Escherichia coli (ATCC # 25922). The assay is performed in two growth media, Mueller Hinton Broth and Trypticase Soy Broth. A blood (Tsoy/5% sheep blood) agar plate is inoculated from frozen stocks maintained in T soy broth containing 10% glycerol and incubated overnight at 37° C. Colonies are suspended in sterile broth so that the turbidity matches the turbidity of a 0.5 McFarland standard. The inoculum is diluted 1:10 in sterile broth (Mueller Hinton or Trypticase soy) and 195 ul is dispensed per well of a 96-well plate. The compounds to be tested, dissolved in DMSO, are added to the wells in 5 ul volume at the following concentrations: 25, 12.5, 6.25, 3.125, 1.56 and 0.78 ug/ml in duplicate. Additional concentrations are tested if required. 5 ul of DMSO added to duplicate wells are the vehicle control. Serial dilutions of positive control compounds, vancomycin (E. faecalis and S. aureus) and tobramycin (E. coli and P. aeruginosa), are included in each run. After 24 hours of incubation at 37° C., plates are read at OD600 on a Molecular Devices SpectraMax Plus Spectrophotometer. Average OD600 values are computed using SOFTmax Pro Software (Molecular Devices) and MIC values are determined by linear regression analysis using Prism version 3.02 (Graph Pad Software, San Diego). The MIC is defined as the concentration of compound required to produce an OD600 reading equivalent to 10% of the vehicle control reading.

[4] = tested on: Pseudomonas aeruginosa (ATCC # 27853); assay: Broth microdilution MIC, P. aeruginosa; assay type: cell-based; settings: for MIC: Pseudomonas aeruginosa, ATCC27853
Experimental: as §1

[5] = Trypticase Soy Broth, read-out: EF/Tsoy (MIC)
[6] = Trypticase Soy Broth, read-out: PSAE/Tsoy (MIC)
[7] = Mueller Hinton Broth, read-out: PSAE/MH (MIC)

SMILES	IC50 [1] [µg/mL]	Beta oxidation ([2]; 1.25 ug/ml)	Beta oxidation ([2]; 2.5 ug/ml)	Beta oxidation ([2]; 5 ug/ml)	Beta oxidation ([2]; 10 ug/ml)	MIC [3, 5] [µg/mL]	MIC [4, 6] [µg/mL]	other results
CCCCCCCCC1OC(=O)C(OC)=C1C(=O)OCC (centres unmarked) [Compound 4]	25.3 ± 1.5 (≈ 84.8 µM)	112	119	116	104			
CCCCCCCCC1OC(=O)C(OC(=O)OCC)=C1C(=O)OCC (centres unmarked) [Compound 7]	7.7 (≈ 21.6 µM)							Beta oxidation ([2]; 0.09 ug/ml): 99; Beta oxidation ([2]; 0.39 ug/ml): 107; Beta oxidation ([2]; 1.56 ug/ml): 113; Beta oxidation ([2]; 6.25 ug/ml): 146; Beta oxidation ([2]; 25 ug/ml): 131; Beta oxidation ([2]; 100 ug/ml): 54
CCCCCCCCC1OC(=O)C(OCc2ccccc2)=C1C(=O)OCC (centres unmarked) [Compound 5]	> 80	108	101	115	74			
CCCCCCCCC1OC(=O)C(=O)C1C(=O)OCC (centres unmarked) [Compound 1]	33.7 ± 14.6 (≈ 119 µM)					42 (≈ 148 µM)	103 (≈ 362 µM)	Weight Loss (Weight loss screen; day 4): 60 mg/kg: 9.7% (day 4); EF/MH (MIC) ([3]; Mueller Hinton Broth): Neg; PSAE/MH (MIC) ([4]; Mueller Hinton Broth): Neg
CCCCCCCCC1OC(=O)C(OCC(=O)OCC)=C1C(=O)OCC (centres unmarked) [Compound 3]	26.7 ± 5.3 (≈ 72.1 µM)	113	131	138	79	135 (≈ 364 µM)	186 (≈ 502 µM)	Weight Loss (Weight loss screen; day 1, printed with + sign): 60 mg/kg: +1.8% (day 1); MIC ([3]; Mueller Hinton Broth, read-out: EF/MH (MIC)): 100 µg/mL (≈ 270 µM); MIC [4, 7]: 173 µg/mL (≈ 467 µM)
CCCCC1OC(=O)C(O)=C1C(=O)OCC (centres unmarked) [Compound 2]	> 80					163 (≈ 714 µM)	210 (≈ 920 µM)	Weight Loss (Weight loss screen; day 4): 60 mg/kg: 12.3% (day 4); EF/MH (MIC) ([3]; Mueller Hinton Broth): Neg; Beta oxidation ([2]; 0.19 ug/ml): 102; Beta oxidation ([2]; 0.39 ug/ml): 102; Beta oxidation ([2]; 1.56 ug/ml): 112; Beta oxidation ([2]; 12.5 ug/ml): 108; Beta oxidation ([2]; 50 ug/ml): 45; Beta oxidation ([2]; .78 ug/ml): 107; MIC [4, 7]: 155 µg/mL (≈ 679 µM)
C=CCOC1=C(C(=O)OCC)C(CCCCCCCC)OC1=O (centres unmarked) [Compound 6]	> 80	118	125	112	101			
